From patent publication US10308685B2, “Inhibitory peptides of viral infection” (UNIVERSITY OF TENNESSEE RESEARCH FOUNDATION, priority 2014, dated 2019)
pIC50: −log10 of the molar value. Where a SMILES comes first, the peptide text is derived from it. Where no end group is shown, it is not given here.

Columns and labels:
[1] = mouse, in vivo; cited from earlier work
[2] = system: trypsin; test: Proteolytic stability: trypsin incubation, then HCMV luciferase assay on MRC-5 cells; assay type: in vitro ADME; settings: 200 μM peptide, 200 μg/ml trypsin, 37° C., 30 and 60 minutes
Description: FIG. 8. Proteolytic stability of p5 and Dp5R. 200 μM of each peptide, CGGY-p5 (SEQ ID NO: 22) and GGGY-Dp5R (SEQ ID NO: 24, D form), was incubated with 200 μg/ml of trypsin for 30 minutes and 60 minutes then added to MRC-5 cells 30 minutes prior to the addition of virus. Data is representative of three separate experiments with three repeats ±SD.
Without wishing to be bound by any particular theory, this increased binding could be due to proteolytic stability of the D-form. Trypsin was thus used to test the proteolytic stability of p5 and Dp5R. More particularly, each peptide was incubated at 37° C. for 30 minutes and 60 minutes with 200 μg/ml of trypsin then added to cells 30 minutes before the addition of virus.

[3] = target: HCMV expressing luciferase (Towne strain); assay type: cell-based, Human Cytomegalovirus; settings: MRC-5 cells, peptide 30 min prior to virus
Description: A recombinant luciferase-expressing Towne strain of HCMV was used for each experiment. To obtain the virus, the virus was cultured in vitro on HFF cells. The virus was titered using a standard plaque assay.
Cells were cultured according to methods known to those of skill in the art. Briefly, human fetal lung fibroblasts (MRC-5, ATCC) were cultured in minimum essential media (MEM, HyClone) supplemented with fetal bovine serum (FBS, HyClone), and L-glutamine. Human foreskin fibroblasts (HFF, ATCC) were cultured in dulbecco's modified eagle medium (DMEM, GE HyClone) supplemented with FBS, L-glutamine and sodium pyruvate. Human aortic endothelial cells were cultured in EGM-2 Bullet Kit (Lonza) supplemented with FBS. Human retinal pigment epithelia cells (ARPE-19) were cultured in DMEM and Hams F12 medium (Lonza) and supplemented with FBS.
Efficacy of viral reduction was measured using a luciferase assay with HCMV expressing luciferase virus. Cells were cultured in a 24-well plate until they reached ˜80% confluency. The cells were washed with phosphate buffered saline (PBS) then treated with peptide. The control cells were treated with PBS supplemented with FBS. After peptide incubation, virus was added (100 RLU for MRC-5, HFF and 1000 RLU for HAEC, ARPE-19) for 1 h. […] After the addition of LAR to the supernatant the luminescence was quantified using a plate reader (BioTek). […]

[4] = system: MCMV; assay type: cell-based, Murine Cytomegalovirus; settings: for inhibition of MCMV infection (plaque reduction): 500 μg/ml, mouse embryonic fibroblasts incubated with peptide 30 min prior to virus
Description: Murine Cytomegalovirus (MCMV) RM4503 was cultured in vitro in MEF 10.1 cells. The virus stock was titered using plaque assay (described below) and stored at −80° C. Human Cytomegalovirus (HCMV) TB40/E was obtained from (46, 47) and cultures in vitro in HFF cells. The virus stock was titered using plaque assay and stored at −80° C. HSV-1 and HSV-2 were cultured in vitro in VERO cells. The virus stock was titered using plaque assay and stored at −80° C.
Peptides were screened for their ability to reduce viral infection using a plaque reduction assay. Cells were cultured in 12-well (VERO) or 24-well culture plates (MEF 10.1 and HFF). When the cells reached ˜80% confluence the media was removed and the cells washed once with PBS before addition of peptide. As a control, cells were incubated with PBS alone. After a 30 min of incubation with peptide in PBS, the virus was added and incubated for another 90 min (HSV and HCMV) or 60 min (MCMV). Following virus incubation the peptide/virus mixture was removed and replaced with 0.75% carboxy-methyl cellulose (Sigma Aldrich, St. Louis, Mo.)+complete media (CMC) or 0.5% agarose (Lonza, Rockland, Me.) in complete media. The plates were incubated at 37° C. in 5% CO2 for 4 days when plaques began to develop, following which they were stained with Coomassie stain (AMRESCO, Solon, Ohio). Plaques were counted manually and data analyzed using Prism 5.0 (GraphPad Software, La Jolla, Calif.). Data were expressed as % plaques relative to the average number of plaques in the PBS-treated wells.
In the initial screening assays all peptides were tested at a single concentration (500 μg/ml) using a plaque-reduction assay, in which mouse embryonic fibroblasts were incubated with the peptides for 30 min prior to the addition of virus.
In the infectivity assays described above the peptide and virus were co-incubated with the cells. Therefore to ensure the peptide was not directly inactivating the virus, MCMV was incubated with 100 μM (˜20× the IC50) peptide at 37° C. for 1 h, diluted to an ineffective peptide concentration (1 μM) and fibroblast infection rates measured.
To determine at which stage of the MCMV entry cycle the peptide interferes, four different peptide treatment protocols were tested, 1) 30 min. prior to infection (pre-adsorption) 2) simultaneously with virus (during adsorption) 3) after letting the virus adsorb to the cells at 4° C. for lhr (post adsorption) or 4) after allowing the virus to fuse with the cell membrane at 37° C. for lhr (post fusion) (FIG. 3(B)).

[5] = system: MEF 10.1 cells; test: Visualization of bound biotinylated peptide on fixed MEF cells (fluorescence); assay type: binding, Mouse; settings: 1.6 μg/mL, streptavidin fluorescence
Description: Coverslips with fixed MEF cells prepared, washed in PBS and blocked with 1% BSA/PBS for 5 min. Following a PBS wash the nuclei were stained by using Hoechst (Life Technologies Molecular Probes, Grand Island, N.Y.) 1:100 in H2O— for 30 min at 37° C. Tissues were then blocked using a casein block solution (Scytek) for 5 min, AVIDIN/Biotin blocks (VECTOR, Burlingame, Calif.) for 20 min each at room temperature (RT) followed by a 5 min PBS wash. Biotinylated GGGY-p5+14 (SEQ ID NO: 25) or p5G (control) at 1.6 μg/mL in PBS was added and the tissues incubated overnight at 4° C. Following a PBS wash Alexa Fluor 594-conjugated streptavidin (Molecular Probes) was added at a 1:200 dilution in PBS for lhr at RT. Cells were then permeabilized by addition of 0.2% Triton X-100 (Sigma) in PBS for 10 min at RT and washed with a solution of 1% BSA in PBS for 30 min. The cells were then stained with Alexa Fluor 488-conjugated phalloidin (Molecular Probes) 1:100 dilution of stock in 1% BSA/PBS, for 45 min. at RT to visualize cytoskeleton. Slides were cover-slipped using a fluorescent mounting medium (Dako, Carpinteria, Calif.) to minimize photobleaching.

[6] = system: MCMV; test: Interference of peptide mediated reduction by heparin (MCMV plaque reduction); assay type: cell-based, Murine Cytomegalovirus
Description: Peptide GGGY-p5+14 (SEQ ID NO: 25) (at 100 μM) was pre-incubated with heparin sodium salt (Acros Organics, NJ) at different concentrations for 1 h at 37° C. Following which the heparin/peptide mix was added to the cells and incubated for 30 min at 37° C. Following the incubation, the supernatant was aspirated and cells washed once with PBS to remove unbound/excess heparin or peptide. The cells were subsequently infected with ˜100 pfu/well of MCMV. To test whether heparin treatment of cells interferes with virus infection, MEF 10.1 cells in a 24 well dish were pre-incubated with different concentrations of heparin for 1 hour and washed as described above. Following the pre-incubation infection was initiated as mentioned above. Finally to test the effect of heparin treatment on the infectivity of virus, MCMV was incubated with different concentration of heparin for lhr before infecting cells. For all these treatments, the virus was removed lhr post infection and cells overlaid with CMC. Plates were incubated for 4 days before staining and counting the plaques. Plaque reduction assay was performed as mentioned above.

Compound: CGGYSKAQKAQAKQAKQAQKAQKAQAKQAKQ [CGGY-p5]
- peptide binding to GAGs expressed in healthy organs or tissues [1]: no evidence of peptide binding to GAGs expressed in healthy organs or tissues
- ability to reduce infection after incubation with trypsin [2]: only able to reduce viral infection in cells when it had not been treated with trypsin
- pIC50 [3]: ~4.22

Compound: MPRRRRIRRRQK (Peptide G2 Synthetic Construct) [reference compound]
- reduction in infection (MCMV) ([4]; 10 μM): ineffective
- inhibition of MCMV infection ([4]; 100 μM): effectively inhibited

Compound: GGGYSRAQRAQARQARQAQRAQRAQARQARQ (CGGY-p5R Peptide Synthetic Construct) [GGGY-p5R]
- blocks viral infection better compared to peptide p5 (CGGY-p5) ([4]; 500 μg/ml screen, FIG. 1(A)): 4 fold

Compound: C[C@@H](NC(=O)[C@@H](CCC(N)=O)NC(=O)[C@@H](C)NC(=O)[C@@H](CCCNC(=N)N)NC(=O)[C@@H](CCC(N)=O)NC(=O)[C@@H](C)NC(=O)[C@@H](CCCNC(=N)N)NC(=O)[C@@H](CCC(N)=O)NC(=O)[C@@H](C)NC(=O)[C@@H](CCC(N)=O)NC(=O)[C@@H](CCCNC(=N)N)NC(=O)[C@@H](C)NC(=O)[C@@H](CCC(N)=O)NC(=O)[C@@H](CCCNC(=N)N)NC(=O)[C@@H](C)NC(=O)[C@@H](CCC(N)=O)NC(=O)[C@@H](C)NC(=O)[C@@H](CCCNC(=N)N)NC(=O)[C@@H](CCC(N)=O)NC(=O)[C@@H](C)NC(=O)[C@@H](CCCNC(=N)N)NC(=O)[C@@H](CO)NC(=O)[C@@H](Cc1ccc(O)cc1)NC(=O)CNC(=O)CNC(=O)CN)C(=O)N[C@H](CCCNC(=N)N)C(=O)N[C@H](CCC(N)=O)C(=O)N[C@H](C)C(=O)N[C@H](CCCNC(=N)N)C(=O)N[C@H](CCC(N)=O)C(=O)O [GGGY-Dp5R] (HELM PEPTIDE1{G.G.G.[dY].[dS].[dR].[dA].[dQ].[dR].[dA].[dQ].[dA].[dR].[dQ].[dA].[dR].[dQ].[dA].[dQ].[dR].[dA].[dQ].[dR].[dA].[dQ].[dA].[dR].[dQ].[dA].[dR].[dQ]}$$$$V2.0; N-terminus and C-terminus assumed)
- ability to reduce infection after incubation with trypsin [2]: retained its ability to reduce infection
- pIC50 [3]: ~4.12

Compound: CGGYSLAQLAQALQALQAQLAQLAQALQALQ (Peptide CGGY-p5L Synthetic Construct)
- inhibition of MCMV infection (plaque reduction) [4]: did not reduce MCMV infection

Compound: CGGYSGAQGAQAGQAGQAQGAQGAQAGQAGQ (also: biotinylated) [CGGY-p5G]
- binding to mouse fibroblasts in culture [5]: did not bind to cells
- inhibition of MCMV infection (plaque reduction) [4]: did not reduce MCMV infection

Compound: CGGYSEAQEAQAEQAEQAQEAQEAQAEQAEQ (Peptide CGGY-p5e Synthetic Construct)
- inhibition of MCMV infection (plaque reduction) [4]: did not reduce MCMV infection

Compound: heparin sodium salt
- MCMV infection after pre-incubation of the cells with heparin ([6]; cells pre-incubated with heparin 1 hour prior to virus addition): did not alter MCMV infection
- reduction of virus infection after pre-incubation of virus with heparin ([6]; heparin concentrations >2 μg/mL): > 80%
